# Experimental data from ChEMBL document CHEMBL5223132, “Structure-activity relationships of mixed σ1R/σ2R ligands with antiproliferative and anticancer effects” (Bioorg Med Chem, 2022).
# Columns and labels:
# [1] = target: T1, Sigma non-opioid intracellular receptor 1 (Cavia porcellus, UniProt Q60492); assay: Displacement of [3H]pentazocine from sigma 1 receptor expressed in guinea pig brain membranes assessed as inhibition constant by radioligand binding assay; assay type: cell membranes, Membrane
# T1 sequence (Q60492 whole entry): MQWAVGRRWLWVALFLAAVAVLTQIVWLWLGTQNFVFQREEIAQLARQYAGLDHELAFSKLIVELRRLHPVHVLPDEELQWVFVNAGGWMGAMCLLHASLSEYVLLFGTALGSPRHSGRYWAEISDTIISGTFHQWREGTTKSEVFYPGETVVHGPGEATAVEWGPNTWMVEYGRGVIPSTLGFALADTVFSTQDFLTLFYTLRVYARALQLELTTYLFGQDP
# [2] = target: T2, Sigma intracellular receptor 2 (Rattus norvegicus, UniProt Q5U3Y7); assay: Displacement of [3H]DTG from sigma 2 receptor expressed in rat liver membranes assessed as inhibition constant in presence of (+)-pentazocine by radioligand binding assay; assay type: cell membranes, Membrane
# T2 sequence (Q5U3Y7 whole entry): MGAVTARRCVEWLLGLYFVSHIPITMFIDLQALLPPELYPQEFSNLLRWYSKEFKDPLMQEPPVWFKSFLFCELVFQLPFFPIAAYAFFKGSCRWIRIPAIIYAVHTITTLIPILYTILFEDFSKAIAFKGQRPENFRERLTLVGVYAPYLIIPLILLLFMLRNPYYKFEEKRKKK
# [3] = target: ATP-dependent translocase ABCB1 (Homo sapiens, UniProt P08183); assay: Inhibition of P-gp transporter (unknown origin) expressed in dog MDCK-MDR1 assessed as inhibition of fluorescent Calcein-AM transport by fluorescence based assay; assay type: cell-based
# Sequence of ATP-dependent translocase ABCB1 (P08183 whole entry): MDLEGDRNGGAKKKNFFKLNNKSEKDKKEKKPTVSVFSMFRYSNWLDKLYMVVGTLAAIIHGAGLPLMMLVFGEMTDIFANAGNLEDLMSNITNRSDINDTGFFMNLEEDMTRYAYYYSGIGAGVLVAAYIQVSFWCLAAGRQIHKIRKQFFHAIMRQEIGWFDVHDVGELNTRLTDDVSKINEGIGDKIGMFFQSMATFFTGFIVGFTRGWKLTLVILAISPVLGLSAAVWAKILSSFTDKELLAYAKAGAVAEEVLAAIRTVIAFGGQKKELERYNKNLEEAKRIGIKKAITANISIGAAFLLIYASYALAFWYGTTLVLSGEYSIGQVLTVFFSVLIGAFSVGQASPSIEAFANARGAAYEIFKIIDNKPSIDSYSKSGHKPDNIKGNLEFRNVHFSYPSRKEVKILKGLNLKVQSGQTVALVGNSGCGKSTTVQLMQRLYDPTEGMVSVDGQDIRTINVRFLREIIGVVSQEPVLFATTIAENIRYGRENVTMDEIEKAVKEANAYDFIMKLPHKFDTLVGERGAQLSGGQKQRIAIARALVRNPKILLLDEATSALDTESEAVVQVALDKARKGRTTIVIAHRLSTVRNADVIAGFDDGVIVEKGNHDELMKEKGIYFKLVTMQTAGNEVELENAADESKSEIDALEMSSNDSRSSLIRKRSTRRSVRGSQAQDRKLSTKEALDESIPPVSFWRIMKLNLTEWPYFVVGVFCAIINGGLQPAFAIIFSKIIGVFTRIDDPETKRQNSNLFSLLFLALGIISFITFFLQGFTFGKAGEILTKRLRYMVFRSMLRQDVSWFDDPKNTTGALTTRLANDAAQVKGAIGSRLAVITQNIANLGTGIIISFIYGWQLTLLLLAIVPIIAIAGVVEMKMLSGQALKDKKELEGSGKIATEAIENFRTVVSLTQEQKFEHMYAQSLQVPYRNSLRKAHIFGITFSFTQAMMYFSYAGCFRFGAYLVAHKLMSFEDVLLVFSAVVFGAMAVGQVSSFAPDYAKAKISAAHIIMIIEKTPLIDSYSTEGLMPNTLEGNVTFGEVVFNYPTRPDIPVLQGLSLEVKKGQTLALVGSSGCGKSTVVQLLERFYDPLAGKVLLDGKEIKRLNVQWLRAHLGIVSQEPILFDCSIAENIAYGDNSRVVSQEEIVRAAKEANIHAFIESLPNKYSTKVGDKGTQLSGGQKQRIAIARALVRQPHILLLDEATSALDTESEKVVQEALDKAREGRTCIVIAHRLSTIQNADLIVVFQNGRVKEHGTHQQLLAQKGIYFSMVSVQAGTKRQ
# PC-3 = assay: Antiproliferative activity against human PC-3 cells assessed as reduction in cell viability incubated for 48 hrs by MTT assay; assay type: functional, cell-based; conditions: PC-3, 48 h
# SK-N-SH = assay: Antiproliferative activity against human SK-N-SH cells assessed as reduction in cell viability incubated for 48 hrs by MTT assay; assay type: functional, cell-based
# [4] = target: T3, Sigma intracellular receptor 2 (Homo sapiens, UniProt Q5BJF2); assay: Binding affinity to human sigma 2 receptor
# T3 sequence (Q5BJF2 whole entry): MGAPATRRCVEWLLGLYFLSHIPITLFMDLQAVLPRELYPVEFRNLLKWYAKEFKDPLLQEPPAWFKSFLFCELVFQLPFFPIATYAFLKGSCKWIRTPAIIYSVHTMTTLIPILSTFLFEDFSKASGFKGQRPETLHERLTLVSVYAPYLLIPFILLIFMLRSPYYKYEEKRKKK
# [5] = target: T4, Sigma non-opioid intracellular receptor 1 (Homo sapiens, UniProt Q99720); assay: Binding affinity to sigma 1 receptor (unknown origin)
# T4 sequence (Q99720 whole entry): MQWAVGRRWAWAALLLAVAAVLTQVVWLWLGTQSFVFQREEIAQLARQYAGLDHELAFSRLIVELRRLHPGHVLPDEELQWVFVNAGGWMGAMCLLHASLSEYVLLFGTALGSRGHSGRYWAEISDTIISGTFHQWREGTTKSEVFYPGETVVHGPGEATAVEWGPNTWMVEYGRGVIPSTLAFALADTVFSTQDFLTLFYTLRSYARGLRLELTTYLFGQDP
# [6] = target: T3, Sigma intracellular receptor 2; assay: Binding affinity to sigma 2 receptor (unknown origin)
# [7] = target: T2, Sigma intracellular receptor 2; assay: Binding affinity to sigma 2 receptor expressed in rat liver; assay type: tissue-based
# [8] = target: T3, Sigma intracellular receptor 2; assay: Binding affinity to sigma 2 receptor (unknown origin) expressed in human RT-4 cells; assay type: cell-based
# A-427 = assay: Antiproliferative activity against human A-427 cells assessed as reduction in cell viability; assay type: functional, cell-based
# 5637 = assay: Antiproliferative activity against human 5637 cells assessed as reduction in cell viability; assay type: functional, cell-based
# MCF7 [9] = assay: Antiproliferative activity against human MCF7 cells assessed as reduction in cell viability; assay type: functional, cell-based
# [10] = target: T3, Sigma intracellular receptor 2; assay: Displacement of [H3]DTG from sigma 2 receptor (unknown origin) by competition binding assay
# [11] = target: T4, Sigma non-opioid intracellular receptor 1; assay: Binding affinity to human sigma 1 receptor
# [12] = target: T1, Sigma non-opioid intracellular receptor 1; assay: Displacement of [3H]pentazocine from sigma 1 receptor expressed in guinea pig brain membranes assessed as inhibition constant incubated for 150 mins by radioligand binding assay; assay type: cell membranes, Membrane
# [13] = target: T2, Sigma intracellular receptor 2; assay: Displacement of [3H]DTG from sigma 2 receptor expressed in rat liver membranes assessed as inhibition constant incubated for 120 mins in presence of (+)-SKF10047 by radioligand binding assay; assay type: cell membranes, Membrane
# SK-MEL-28 [14] = assay: Anti-proliferative against human SK-MEL-28 cells assessed as reduction in cell viability incubated for 24 hrs by MTT assay; assay type: functional, cell-based; conditions: SK-MEL-28, 24 h
# SK-MEL-28 [15] = assay: Anti-proliferative against human SK-MEL-28 cells assessed as reduction in cell viability incubated for 48 hrs by MTT assay; assay type: functional, cell-based; conditions: SK-MEL-28, 48 h
# MDA-MB-231 [16] = assay: Anti-migratory activity against human MDA-MB-231 cells assessed as reduction in cell migration at 10 uM and measured after 12 hrs by wound healing assay; assay type: functional; design: scale not given: the % may be the effect or the level left
# MDA-MB-231 [17] = assay: Anti-invasive activity against human MDA-MB-231 cells assessed as decrease in cell invasion at 10 uM incubated for 24 hrs by 3D spheroid invasion assay; assay type: functional; design: scale not given: the % may be the effect or the level left
# [18] = target: T4, Sigma non-opioid intracellular receptor 1; assay: Displacement of [H3]DTG from sigma 1 receptor (unknown origin) by competition binding assay
# [19] = Binding affinity to human sigma 1 receptor
# [20] = Anti-proliferative against human U-87 MG cells assessed as reduction in cell viability incubated for 24 hrs by MTT assay; assay type: functional, cell-based, U-87MG ATCC
# [21] = Anti-proliferative against human U-87 MG cells assessed as reduction in cell viability incubated for 48 hrs by MTT assay; assay type: functional, cell-based, U-87MG ATCC
# [22] = Anti-proliferative against human U-87 MG cells assessed as reduction in cell viability incubated for 72 hrs by MTT assay; assay type: functional, cell-based, U-87MG ATCC
# MDCK-MDR1 [23] = assay: Anticancer against dog MDCK-MDR1 cells assessed as reduction in cell viability at 50 uM incubated for 48 hrs by MTT assay; assay type: functional, Canis lupus familiaris
# MDCK-MDR1 [24] = assay: Anticancer against dog MDCK-MDR1 cells assessed as reduction in cell viability at 30 uM incubated for 48 hrs in presence of doxorubicin by MTT assay; assay type: functional, Canis lupus familiaris
# MDCK-MDR1 [25] = assay: Anticancer against dog MDCK-MDR1 cells assessed as reduction in cell viability at 50 uM incubated for 48 hrs in presence of doxorubicin by MTT assay; assay type: functional, Canis lupus familiaris
# [26] = target: T1, Sigma non-opioid intracellular receptor 1; assay: Binding affinity to sigma 1 receptor expressed in guinea pig brain; assay type: tissue-based
# [27] = target: T4, Sigma non-opioid intracellular receptor 1; assay: Binding affinity to sigma 1 receptor (unknown origin) expressed in human RPMI-8226 cells; assay type: cell-based
# RPMI-8226 [28] = assay: Antiproliferative activity against human RPMI-8226 cells assessed as reduction in cell viability; assay type: functional, cell-based
# [29] = Anti-proliferative against human U-87 MG cells assessed as reduction in cell viability at 40 uM incubated for 24 hrs by MTT assay; assay type: functional, U-87MG ATCC
# RPMI-8226 [30] = assay: Anti-proliferative against human RPMI-8226 cells assessed as reduction in cell viability at 40 uM incubated for 24 hrs by MTT assay; assay type: functional
# RPMI-8226 [31] = assay: Induction of apoptosis in human RPMI-8226 cells assessed as total apoptotic cells incubated for 48 hrs by annexin-V/propidium iodide staining based flow cytometry; assay type: functional
# MCF7 [32] = assay: Antiproliferative activity against human MCF7 cells assessed as reduction in cell proliferation at 100 uM incubated for 48 hrs by MTT assay; assay type: functional; design: scale not given: the % may be the effect or the level left
# D(2) dopamine receptor = D(2) dopamine receptor (Homo sapiens, UniProt P14416); assay: Binding affinity to D2R receptor (unknown origin)
# Sequence of D(2) dopamine receptor (P14416 whole entry): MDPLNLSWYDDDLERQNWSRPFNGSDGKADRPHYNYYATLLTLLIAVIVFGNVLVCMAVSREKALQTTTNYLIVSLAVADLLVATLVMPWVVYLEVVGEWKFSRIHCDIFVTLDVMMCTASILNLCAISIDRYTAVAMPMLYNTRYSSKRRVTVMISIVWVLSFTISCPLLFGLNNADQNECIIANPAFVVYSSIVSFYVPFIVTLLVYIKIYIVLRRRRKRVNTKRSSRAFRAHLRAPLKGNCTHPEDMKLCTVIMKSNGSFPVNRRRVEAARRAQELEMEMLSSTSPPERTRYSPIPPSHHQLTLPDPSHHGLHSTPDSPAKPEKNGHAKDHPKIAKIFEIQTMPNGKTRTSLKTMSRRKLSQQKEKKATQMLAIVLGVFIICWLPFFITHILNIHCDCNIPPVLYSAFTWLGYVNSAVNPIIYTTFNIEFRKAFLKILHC
# [33] = target: T5, 5-hydroxytryptamine receptor 1A (Homo sapiens, UniProt P08908); assay: Binding affinity to 5-HT1A receptor (unknown origin) by […]
# T5 sequence (P08908 whole entry): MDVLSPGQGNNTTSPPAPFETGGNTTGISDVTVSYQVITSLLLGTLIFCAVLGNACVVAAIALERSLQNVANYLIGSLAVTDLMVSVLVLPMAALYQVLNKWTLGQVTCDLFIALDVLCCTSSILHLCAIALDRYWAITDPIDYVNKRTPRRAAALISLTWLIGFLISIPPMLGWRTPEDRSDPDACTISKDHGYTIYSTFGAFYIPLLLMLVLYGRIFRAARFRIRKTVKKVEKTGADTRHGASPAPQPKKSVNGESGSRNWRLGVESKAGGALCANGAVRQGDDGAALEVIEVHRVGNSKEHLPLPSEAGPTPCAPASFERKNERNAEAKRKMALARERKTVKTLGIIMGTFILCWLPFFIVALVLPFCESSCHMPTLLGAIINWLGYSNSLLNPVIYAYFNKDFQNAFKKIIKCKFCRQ
compound,measurement,setting,value
Fc1cccc(F)c1[C@H]1CC[C@@H](N2CCN(C3CCCCC3)CC2)CC1,Ki,[1],0.63 nM
same,Ki,[2],14.1 nM
same,EC50,[3],7300 nM
same,EC50,PC-3,40600 nM
same,EC50,SK-N-SH,12100 nM
CCCN(CCC)CCc1ccc(OC)c(OCCc2ccccc2)c1,Ki,[4],170 nM
O=c1sc2cc(CCCF)ccc2n1CCN1CCCCCC1,Ki,[5],0.0025 nM
COc1cc2c(cc1OC)CN(CCCCNC(=O)c1cc(C)ccc1OCC[18F])CC2,Ki,[5],23.9 nM
same,Ki,[6],2 nM
O=C(OCCN1CCOCC1)C1(c2ccccc2)CCCCC1,Ki,[4],32100 nM
OCC[C@H]1CN(CC2CCCCC2)CCN1Cc1ccc(-c2ccccc2)cc1,Ki,[7],73 nM
same,Ki,[8],43 nM
same,IC50,A-427,9250 nM
same,IC50,5637,10500 nM
same,IC50,MCF7 [9],8830 nM
OCC[C@@H]1CN(CC2CCCCC2)CCN1Cc1ccc(-c2ccccc2)cc1,Ki,[7],38 nM
same,Ki,[8],39 nM
same,IC50,A-427,3460 nM
same,IC50,5637,6570 nM
same,IC50,MCF7 [9],> 20000 nM
COc1ccc(C)cc1NC(=O)OC1CC2CCCC(C1)N2CCCCCCCCCCN (stereo not given),Ki,[10],7.7 nM
CCCN1CCC=C(c2cc(-c3ccc(C)cc3)no2)C1,Ki,[11],0.08 nM
same,Ki,[4],1380 nM
c1ccc(CC2CCN(CC3CSC4(CCCCC4)S3)CC2)cc1 (stereo not given),Ki,[12],537 nM
same,Ki,[13],19.5 nM
same,IC50,SK-MEL-28 [14],52000 nM
same,IC50,SK-MEL-28 [15],22000 nM
O=C(CCCN1CCCN(c2ccc(Cl)cc2)CC1)c1ccc(F)cc1,Activity,MDA-MB-231 [16],95%
same,Activity,MDA-MB-231 [17],49%
CCN(C/C=C\c1ccc(C2CCCCC2)c(Cl)c1)C1CCCCC1,Ki,[18],2 nM
same,IC50,[10],45 nM
O=C(NC1CCN(Cc2ccccc2)CC1)c1ccc(I)cc1,Ki,[4],25.2 nM
same,Ki,[19],1.7 nM
CCCCCCCNCCC1CCN(C)C(c2ccccc2)C1 (stereo not given),Ki,[1],16 nM
same,Ki,[2],285 nM
CCN(CC)CCNC(=O)c1ccc(OC)c([123I])c1,Ki,[5],11.8 nM
same,Ki,[6],206 nM
CN1C(=O)CCc2cc(CNC(C)(C)[C@@H](O)c3ccccc3)ccc21,Ki,[18],> 1000 nM
same,Ki,[10],4 nM
C1=C(c2c[nH]c3ncccc23)CCN(CCCc2ccccc2)C1,Ki,[18],29 nM
CCCCCCNCC[C@H]1CCC[C@@H](c2ccccc2)O1,Ki,[1],2.4 nM
same,Ki,[2],36 nM
C/C(=C\CN1CCN(Cc2ccc(C(F)(F)F)cc2)CC1)c1ccccc1,IC50,"[20]; Homo sapiens, U-87 MG, 24 h",28300 nM
same,IC50,[20]; u-87mg atcc,22300 nM
same,IC50,[21],22300 nM
same,IC50,[22],19000 nM
C/C(=C\CN1CCN(C(=O)C2CCCC2)CC1)c1ccccc1,IC50,"[20]; Homo sapiens, U-87 MG, 24 h",39000 nM
same,IC50,[21],39000 nM
same,IC50,[22],11200 nM
COc1cccc(OC)c1[C@H]1CC[C@@H](N2CCN(C3CCCCC3)CC2)CC1,Ki,[1],0.26 nM
same,Ki,[2],7.92 nM
same,EC50,[3],800 nM
same,EC50,PC-3,31300 nM
same,EC50,SK-N-SH,32500 nM
same,Activity,MDCK-MDR1 [23],50%
same,Activity,MDCK-MDR1 [24],70%
same,Activity,MDCK-MDR1 [25],90%
CCCCCCNCC[C@@H]1CCC[C@H](c2ccccc2)O1,Ki,[1],0.95 nM
same,Ki,[2],57 nM
CCN1CCN(Cc2cccc3ccccc23)[C@@H](CCO)C1,Ki,[26],1.9 nM
same,Ki,[7],26 nM
same,Ki,[27],29 nM
same,Ki,[8],16 nM
same,IC50,A-427,9120 nM
same,IC50,5637,3650 nM
same,IC50,RPMI-8226 [28],1290 nM
same,IC50,MCF7 [9],9770 nM
C/C(=C\CN1CCN(Cc2ccccc2)CC1)c1ccc2ccccc2c1,Activity,[29],34%
same,Activity,RPMI-8226 [30],65%
c1ccc(CN2CCN(CC3CSC4(CCCCC4)S3)CC2)cc1 (stereo not given),Ki,[12],6.16 nM
same,Ki,[13],75.9 nM
same,IC50,SK-MEL-28 [14],50000 nM
same,IC50,SK-MEL-28 [15],38000 nM
COc1ccc(/C(C)=C/CN2CCN(Cc3ccc(C(F)(F)F)cc3)CC2)cc1,IC50,"[20]; Homo sapiens, U-87 MG, 24 h",27600 nM
same,IC50,[20]; u-87mg atcc,24100 nM
same,IC50,[21],24100 nM
same,IC50,[22],20600 nM
CCN1CCN(Cc2cccc3ccccc23)[C@H](CCO)C1,Ki,[26],0.9 nM
same,Ki,[7],14 nM
same,Ki,[27],7.5 nM
same,Ki,[8],37 nM
same,IC50,A-427,5020 nM
same,IC50,5637,4790 nM
same,IC50,RPMI-8226 [28],8530 nM
same,IC50,MCF7 [9],9050 nM
same,Activity,RPMI-8226 [31],32%
OC(CCCN1CCC(O)(c2ccc(Cl)cc2)CC1)c1ccc(F)cc1 (racemic) [HYDROXYHALOPERIDOL],Activity,MCF7 [32],98%
CCCN1CCC(c2cccc(S(C)(=O)=O)c2)CC1 [PRIDOPIDINE],Ki,[5],17 nM
same,Ki,D(2) dopamine receptor,10000 nM
O=C(CN1CCC(CN2Cc3ccccc3C2=O)CC1)c1ccc(F)cc1 [ROLUPERIDONE],Ki,[33],7.53 nM
